The target in one data set is T1, Aurora2 kinase (Homo sapiens, UniProt O14965).
T1 construct: A complete recombinant Aurora2 enzyme; His tag (N); made in house; host or cells: E. coli
T1 sequence (O14965 1-403): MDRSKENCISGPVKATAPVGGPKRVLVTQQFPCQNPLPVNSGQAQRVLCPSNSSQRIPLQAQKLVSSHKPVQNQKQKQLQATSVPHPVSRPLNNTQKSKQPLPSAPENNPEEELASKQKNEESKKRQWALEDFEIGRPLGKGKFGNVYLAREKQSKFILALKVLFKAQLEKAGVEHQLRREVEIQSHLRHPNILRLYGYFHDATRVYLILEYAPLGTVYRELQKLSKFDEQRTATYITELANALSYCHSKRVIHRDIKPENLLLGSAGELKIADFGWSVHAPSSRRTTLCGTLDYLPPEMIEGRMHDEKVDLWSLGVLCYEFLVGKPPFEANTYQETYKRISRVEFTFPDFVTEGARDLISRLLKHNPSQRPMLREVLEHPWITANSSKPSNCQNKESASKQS
Nature of the data set: Aurora2 kinase radioactivity scintillation assay using nickel chelate (NuMA substrate). In kind it is biochemical. The note with it: 10 μM; read-out: Aurora2 % inhib at 10 μM. Summed up: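 Read-out is 33P incorporation into His-NuMA (Q1687-H2101, 0.5 μM) captured on nickel chelate, after 30 min at 37 °C with 0.02 μM His-Aurora2 and 1 μM ATP. Expressed as percentage inhibition of uncompounded control activity, background subtracted.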

The next data set has as its system c-Src protein. Nature of the data set: Src kinase phosphorylation of biotinylated cdc2 substrate, fluorescence (DELFIA). Type of data set: biochemical, human. Summed up: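 Recombinant human c-Src (SH3, SH2 and catalytic domains; baculovirus) phosphorylates biotinylated cdc2 substrate in 50 mM Tris, 10 mM MgCl2 with 10 μM ATP, 60 min at 30° C. Product captured on streptavidin and detected by Europium-anti-phosphotyrosine fluorescence (DELFIA). Reported as % inhibition of no-compound control.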

The target in another data set is T2, human Tie2 (Homo sapiens, UniProt Q02763).
T2 construct: amino acids of the intracellular domain 776-1124; made in house; host or cells: baculovirus expression system (vector pFastBacGT)
The data set is described as follows: Tie2 phosphorylation of PLC, FlashPlate radioactivity assay. The note with it: read-out: TIE2 % inhib at 10 μM. Type of data set: biochemical. How it is done:
The coding sequence of human Tie2 corresponding to the amino acids of the intracellular domain 776-1124 was generated by PCR using the cDNA isolated from human placenta as model. This sequence was introduced into a baculovirus expression vector pFastBacGT in the form of a GST fusion protein.
The inhibitory effect of the molecules is determined in an assay of phosphorylation of PLC by Tie2 in the presence of GST-Tie2 purified to approximately 80% homogeneity. The substrate is composed of the SH2-SH3 fragments of PLC exprressed in the form of a GST fusion protein.
The kinase activity of Tie2 is measured in a 20 mM MOPS buffer, pH 7.2, containing 10 mM MgCl2, 10 mM MnCl2, 1 mM DTT and 10 mM of glycerophosphate. A reaction mixture composed of 70 μl of kinase buffer containing 100 ng of GST-Tie2 enzyme per well is placed in a FlashPlate 96-well plate kept on ice. 10 μl of the test molecule diluted in DMSO at a maximum concentration of 10% are then added. For a given concentration, each measurement is carried out in quadruplicate. The reaction is initiated by adding 20 μl of solution containing 2 μg of GST-PLC, 2 μM of cold ATP and 1 μCi of ^33P[ATP]. After incubation for 1 hour at 37° C., the reaction is stopped by adding 1 volume (100 μl) of 200 mM EDTA. After removing the incubation buffer, the wells are washed three times with 300 μl of PBS. The radioactivity is measured on a Wallac MicroBeta 1450.
The inhibition of the Tie2 activity is calculated and expressed as percentage inhibition compared to the control activity determined in the absence of compound.

T2 sequence (Q02763 776-1124): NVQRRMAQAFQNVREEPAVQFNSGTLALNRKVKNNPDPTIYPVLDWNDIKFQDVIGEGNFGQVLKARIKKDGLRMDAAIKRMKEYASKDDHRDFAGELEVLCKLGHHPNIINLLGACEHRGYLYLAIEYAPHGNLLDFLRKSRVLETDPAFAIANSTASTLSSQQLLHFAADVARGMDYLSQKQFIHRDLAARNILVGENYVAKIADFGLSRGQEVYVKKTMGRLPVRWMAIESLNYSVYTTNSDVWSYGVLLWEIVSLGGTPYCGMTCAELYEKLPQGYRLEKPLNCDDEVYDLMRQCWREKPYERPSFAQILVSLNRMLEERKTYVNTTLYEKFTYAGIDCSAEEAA

On to `CS(=O)(=O)c1ccccc1S(=O)(=O)Nc1ccc2[nH]nc(-c3nc4ccccc4[nH]3)c2c1` [Example 81, N-[3-(1H-Benzimidazol-2-yl)-1H-indazol-5-yl]-2-methylsulfonylbenzenesulfonamide], for which, at Aurora2 kinase, the inhibition at 10 µM was found to be 100%. Moreover, the “SRC % inhib at 10 μM” value in the data set on c-Src protein amounted to 100%.

`O=S(=O)(Nc1ccc2[nH]nc(-c3ccccc3)c2c1)c1ccc(F)c(F)c1` [Example 152, 3,4-Difluoro-N-(3-phenyl-1H-indazol-5-yl)-benzenesulfonamide]: the inhibition at 10 µM at Aurora2 kinase was determined as 92%. In addition, the “SRC % inhib at 10 μM” value in the data set with c-Src protein turned out to be 43%.

For the compound `O=S(=O)(Nc1ccc2[nH]nc(Cl)c2c1)c1cccc(F)c1` [Example 3, N-(3-Chloro-1H-indazol-5-yl)-3-fluorobenzenesulfonamide], the inhibition at 10 µM at human Tie2 was 15%; on Aurora2 kinase, 46%.

A word on the melting point: it is the temperature, or range, at which the solid turns liquid. `CS(=O)(=O)c1ccccc1S(=O)(=O)Nc1ccc2[nH]nc(-c3ccc(Cl)cc3)c2c1` [Example 30, N-[3-(4-Chlorophenyl)-1H-indazol-5-yl]-2-methylsulfonylbenzenesulfonamide] showed a melting point of 242 °C. Also, the inhibition at 10 µM at Aurora2 kinase was found to be 100%. In the data set with c-Src protein, the “SRC % inhib at 10 μM” value turned out to be 72%.

Turning to `O=C(O)c1cccc(S(=O)(=O)Nc2ccc3[nH]nc(-c4ccccc4)c3c2)c1` [Example 133, 3-(3-Phenyl-1H-indazol-5-ylsulfamoyl)benzoic acid], the inhibition at 10 µM at Aurora2 kinase was 67%. For the same compound, the “SRC % inhib at 10 μM” value in the data set on c-Src protein came out at 24%.

As for `COc1ccc(OC)c(S(=O)(=O)Nc2ccc3[nH]nc(-c4ccccc4)c3c2)c1` [Example 131, 2,5-Dimethoxy-N-(3-phenyl-1H-indazol-5-yl)-benzenesulfonamide], the inhibition at 10 µM at Aurora2 kinase came to 97%. In the data set on c-Src protein, the “SRC % inhib at 10 μM” value was found to be 36%.

On to `CN(C)c1ccc(-c2n[nH]c3ccc(NS(=O)(=O)c4ccccc4S(C)(=O)=O)cc23)cc1` [Example 63, N-[3-(4-Dimethylaminophenyl)-1H-indazol-5-yl]-2-methylsulfonylbenzenesulfonamide], for which the inhibition at 10 µM at Aurora2 kinase amounted to 100%. Further, the “SRC % inhib at 10 μM” value in the data set with c-Src protein is 46%.

Regarding `Cc1n[nH]c2ccc(NS(=O)(=O)c3cccc(F)c3)cc12` [Example 9, 3-Fluoro-N-(3-methyl-1H-indazol-5-yl)benzenesulfonamide], the melting point was found to be 120 °C. For the same compound, the inhibition at 10 µM on human Tie2 came out at 29%. The inhibition at 10 µM on Aurora2 kinase amounted to 61%.

Consider `O=[N+]([O-])c1ccccc1S(=O)(=O)Nc1ccc2[nH]nc(-c3ccccc3)c2c1` [Example 113, 2-Nitro-N-(3-phenyl-1H-indazol-5-yl)benzenesulfonamide], for which the inhibition at 10 µM on Aurora2 kinase worked out at 100%. Moreover, the “SRC % inhib at 10 μM” value with c-Src protein was 23%.

Regarding `Cc1n[nH]c2ccc(NS(=O)(=O)c3ccccc3S(C)(=O)=O)cc12` [Example 10, 2-Methylsulfonyl-N-(3-methyl-1H-indazol-5-yl)benzenesulfonamide], the inhibition at 10 µM turned out to be 33% on human Tie2 and 90% on Aurora2 kinase.

Take `CS(=O)(=O)c1ccccc1S(=O)(=O)Nc1ccc2[nH]nc(-c3ccc[nH]3)c2c1` [Example 60, 2-Methylsulfonyl-N-[3-(1H-pyrrol-2-yl)-1H-indazol-5-yl]benzenesulfonamide]: the melting point was 255 °C. Also, the inhibition at 10 µM at Aurora2 kinase was determined as 100%. In the data set on c-Src protein, the “SRC % inhib at 10 μM” value came to 98%.

Regarding `CS(=O)(=O)c1ccccc1S(=O)(=O)Nc1ccc2[nH]ncc2c1` [Example 13, 2-Methylsulfonyl-N-(1H-indazol-5-yl)benzenesulfonamide], the melting point was found to be 245 °C. The inhibition at 10 µM on human Tie2 amounted to 22%. The inhibition at 10 µM at Aurora2 kinase stood at 76%.

Consider `CS(=O)(=O)c1ccccc1S(=O)(=O)Nc1ccc2[nH]nc(-c3cc4ccccc4[nH]3)c2c1` [Example 61, N-[3-(1H-Indol-2-yl)-1H-indazol-5-yl]-2-methylsulfonylbenzenesulfonamide], for which, at Aurora2 kinase, the inhibition at 10 µM is 100%. The “SRC % inhib at 10 μM” value in the data set with c-Src protein is 99%.

On to `COc1cccc(S(=O)(=O)Nc2ccc3[nH]nc(-c4ccccc4)c3c2)c1` [Example 156, 3-Methoxy-N-(3-phenyl-1H-indazol-5-yl)-benzenesulfonamide], for which the inhibition at 10 µM at Aurora2 kinase was 99%. Moreover, the “SRC % inhib at 10 μM” value with c-Src protein is listed as 57%.

On to `O=S(=O)(Nc1ccc2[nH]nc(-c3ccccc3)c2c1)c1ccc(Cl)s1` [Example 135, 5-Chloro-N-(3-phenyl-1H-indazol-5-yl)thiophene-2-sulfonamide], for which the inhibition at 10 µM on Aurora2 kinase is 100%. Moreover, the “SRC % inhib at 10 μM” value in the data set with c-Src protein is reported as 54%.

`N#Cc1cccc(S(=O)(=O)Nc2ccc3[nH]nc(-c4ccccc4)c3c2)c1` [Example 154, 3-Cyano-N-(3-phenyl-1H-indazol-5-yl)-benzenesulfonamide]: the inhibition at 10 µM at Aurora2 kinase is 95%. Further, the “SRC % inhib at 10 μM” value with c-Src protein is recorded as 44%.

For the compound `O=S(=O)(Nc1ccc2[nH]nc(-c3ccccc3)c2c1)c1ccccc1C(F)(F)F` [Example 109, N-(3-Phenyl-1H-indazol-5-yl)-2-trifluoromethylbenzene-sulfonamide], the inhibition at 10 µM at Aurora2 kinase was 100%. Also, in the data set on c-Src protein, the “SRC % inhib at 10 μM” value is given as 42%.

As to `O=S(=O)(Nc1ccc2[nH]nc(-c3ccccc3)c2c1)c1cc(F)cc(F)c1` [Example 158, 3,5-Difluoro-N-(3-phenyl-1H-indazol-5-yl)-benzenesulfonamide], the inhibition at 10 µM at Aurora2 kinase is 100%. Moreover, the “SRC % inhib at 10 μM” value in the data set with c-Src protein is reported as 75%.

The compound `CS(=O)(=O)c1ccccc1S(=O)(=O)Nc1ccc2[nH]nc(-c3cc4ccccc4s3)c2c1` [Example 65, N-(3-Benzo[b]thiophen-2-yl-1H-indazol-5-yl)-2-methylsulfonylbenzenesulfonamide] had a melting point of 270 °C. At Aurora2 kinase, the inhibition at 10 µM stood at 100%. Moreover, the “SRC % inhib at 10 μM” value in the data set with c-Src protein is 96%.

Consider `Cc1cccc(S(=O)(=O)Nc2ccc3[nH]nc(-c4ccccc4)c3c2)c1` [Example 138, 3-Methyl-N-(3-phenyl-1H-indazol-5-yl)-benzenesulfonamide], for which, at Aurora2 kinase, the inhibition at 10 µM was 99%. Also, the “SRC % inhib at 10 μM” value in the data set on c-Src protein is recorded as 39%.

With `O=S(=O)(Nc1ccc2[nH]nc(-c3ccccc3)c2c1)c1ccccc1F` [Example 134, 2-Fluoro-N-(3-phenyl-1H-indazol-5-yl)-benzenesulfonamide], the inhibition at 10 µM on Aurora2 kinase was found to be 100%. Also, the “SRC % inhib at 10 μM” value in the data set on c-Src protein worked out at 44%.

`CS(=O)(=O)c1ccccc1S(=O)(=O)Nc1ccc2[nH]nc(-c3cccc(N)c3)c2c1` [Example 62, N-[3-(3-Aminophenyl)-1H-indazol-5-yl]-2-methylsulfonylbenzenesulfonamide]: the melting point was determined as 220 °C. Also, the inhibition at 10 µM on Aurora2 kinase turned out to be 100%. Besides, the “SRC % inhib at 10 μM” value in the data set with c-Src protein is listed as 95%.

Regarding `CS(=O)(=O)c1ccccc1S(=O)(=O)Nc1ccc2[nH]nc(Cl)c2c1` [Example 1, N-(3-Chloro-1H-indazol-5-yl)-2-methylsulfonylbenzenesulfonamide], the inhibition at 10 µM on human Tie2 is 18%; on Aurora2 kinase it was 86%.

For `O=S(=O)(Nc1ccc2[nH]nc(-c3ccccc3)c2c1)c1ccccc1` [Example 112, N-(3-Phenyl-1H-indazol-5-yl)benzenesulfonamide], the inhibition at 10 µM at Aurora2 kinase stood at 100%. For the same compound, the “SRC % inhib at 10 μM” value in the data set with c-Src protein stood at 47%.

For `O=S(=O)(Nc1ccc2[nH]nc(-c3ccccc3)c2c1)c1ccc(F)cc1` [Example 117, 4-Fluoro-N-(3-phenyl-1H-indazol-5-yl)-benzenesulfonamide], the inhibition at 10 µM on Aurora2 kinase is 100%. For the same compound, the “SRC % inhib at 10 μM” value in the data set with c-Src protein was 39%.

For the compound `Cc1ccccc1S(=O)(=O)Nc1ccc2[nH]nc(-c3ccccc3)c2c1` [Example 132, 2-Methyl-N-(3-phenyl-1H-indazol-5-yl)-benzenesulfonamide], the inhibition at 10 µM on Aurora2 kinase is 100%. The “SRC % inhib at 10 μM” value in the data set with c-Src protein is listed as 18%.
